{"source": "patent US12083094B2", "about": "“Cannabinoid composition and methods of treatment using the same” (CANNPAL ANIMAL THERAPEUTICS LIMITED, priority 2018, dated 2024)", "assay": "Blood sampling for THC and CBD plasma concentration after single oral dosing", "settings": "oral", "method": "Two compositions, IVP1 and IVP2, were administered in varying amounts in the study.\nDosage volumes were calculated prior to Day 0, to provide the target dosage in mg/kg bodyweight based on actual dog bodyweights and IVP active ingredient composition based on the Certificates of Analysis.\nBlood samples of approximately 5 mL were collected at each drug concentration sampling time-point from each animal using 22-gauge needles and 5 mL syringes.\nThe data points from Table 4 and Table 5 were also plotted and these graphs are set out in FIGS. 1-16.", "key": {"[1]": {"settings": "dog, plasma, CBD concentration in blood plasma, individual dogs 1-4, 0.12 mg/kg CBD + 0.24 mg/kg THC oral once"}, "[2]": {"settings": "dog, plasma, CBD concentration in blood plasma, individual dogs 5-8, 0.24 mg/kg CBD + 0.12 mg/kg THC oral once"}, "[3]": {"settings": "dog, plasma, CBD concentration in blood plasma, mean of dogs 1-4, 0.12 mg/kg CBD + 0.24 mg/kg THC oral once"}, "[4]": {"settings": "dog, plasma, CBD concentration in blood plasma, mean of dogs 5-8, 0.24 mg/kg CBD + 0.12 mg/kg THC oral once"}}, "data": [{"smiles": "C=C(C)[C@@H]1CCC(C)=C[C@H]1c1c(O)cc(CCCCC)cc1O", "note": "[CBD, Cannabidiol]", "values": [{"measurement": "AUC of CBD after 0.12 mg/kg THC/0.24 mg/kg CBD relative to AUC of CBD after 0.24 mg/kg THC/0.12 mg/kg CBD", "setting": "canine", "value": "more than twice"}, {"measurement": "concentration at 0 h", "setting": "[1]", "value": 0, "unit": "µg/mL"}, {"measurement": "concentration at 1.5 h", "setting": "[1]", "value": 7.5, "unit": "ng/mL"}, {"measurement": "concentration at 2 h", "setting": "[1]", "value": 6.27, "unit": "ng/mL"}, {"measurement": "concentration at 32 h", "setting": "[1]", "value": 0, "unit": "ng/mL"}, {"measurement": "concentration at 0 h", "setting": "[2]", "value": 0, "unit": "µg/mL"}, {"measurement": "concentration at 2 h", "setting": "[2]", "value": 23.7, "unit": "ng/mL"}, {"measurement": "concentration at 3 h", "setting": "[2]", "value": 9.21, "unit": "ng/mL"}, {"measurement": "concentration at 4 h", "setting": "[2]", "value": 5.28, "unit": "ng/mL"}, {"measurement": "concentration at 12 h", "setting": "[2]", "value": 0.88, "unit": "ng/mL"}, {"measurement": "concentration at 16 h", "setting": "[2]", "value": 0.55, "unit": "ng/mL"}, {"measurement": "concentration at 24 h", "setting": "[2]", "value": 0.38, "unit": "ng/mL"}, {"measurement": "concentration at 32 h", "setting": "[2]", "value": 0.28, "unit": "ng/mL"}, {"measurement": "concentration at 72 h", "setting": "dog, plasma, CBD concentration in blood plasma, individual dogs 5-8, 0.24 mg/kg CBD + 0.12 mg/kg THC oral once, 72 h", "value": 0, "unit": "µg/mL"}, {"measurement": "concentration at 0 h", "setting": "[3]", "value": 0, "unit": "µg/mL"}, {"measurement": "concentration at 0.67 h", "setting": "[3]", "value": 12.3, "unit": "ng/mL"}, {"measurement": "concentration at 1 h", "setting": "[3]", "value": 11.2, "unit": "ng/mL"}, {"measurement": "concentration at 1.5 h", "setting": "[3]", "value": 8.6, "unit": "ng/mL"}, {"measurement": "concentration at 2 h", "setting": "[3]", "value": 6.89, "unit": "ng/mL"}, {"measurement": "concentration at 3 h", "setting": "[3]", "value": 4.31, "unit": "ng/mL"}, {"measurement": "concentration at 4 h", "setting": "[3]", "value": 2.9, "unit": "ng/mL"}, {"measurement": "concentration at 6 h", "setting": "[3]", "value": 2.02, "unit": "ng/mL"}, {"measurement": "concentration at 8 h", "setting": "[3]", "value": 1.3, "unit": "ng/mL"}, {"measurement": "concentration at 12 h", "setting": "[3]", "value": 0.41, "unit": "ng/mL"}, {"measurement": "concentration at 16 h", "setting": "[3]", "value": 0.16, "unit": "ng/mL"}, {"measurement": "concentration at 24 h", "setting": "[3]", "value": 0.11, "unit": "ng/mL"}, {"measurement": "concentration at 32 h", "setting": "[3]", "value": 0, "unit": "ng/mL"}, {"measurement": "concentration at 0 h", "setting": "[4]", "value": 0, "unit": "µg/mL"}, {"measurement": "concentration at 0.67 h", "setting": "[4]", "value": 30.1, "unit": "ng/mL"}, {"measurement": "concentration at 1 h", "setting": "[4]", "value": 35.8, "unit": "ng/mL"}, {"measurement": "concentration at 1.5 h", "setting": "[4]", "value": 26.9, "unit": "ng/mL"}, {"measurement": "concentration at 2 h", "setting": "[4]", "value": 17.9, "unit": "ng/mL"}, {"measurement": "concentration at 3 h", "setting": "[4]", "value": 7.5, "unit": "ng/mL"}, {"measurement": "concentration at 4 h", "setting": "[4]", "value": 4.53, "unit": "ng/mL"}, {"measurement": "concentration at 6 h", "setting": "[4]", "value": 3.31, "unit": "ng/mL"}, {"measurement": "concentration at 8 h", "setting": "[4]", "value": 2.79, "unit": "ng/mL"}, {"measurement": "concentration at 12 h", "setting": "[4]", "value": 0.77, "unit": "ng/mL"}, {"measurement": "concentration at 16 h", "setting": "[4]", "value": 0.54, "unit": "ng/mL"}, {"measurement": "concentration at 24 h", "setting": "[4]", "value": 0.35, "unit": "ng/mL"}]}]}
